Ki data for 16 compounds are collected here from ChEMBL document CHEMBL1135054, “Biphenylsulfonamide endothelin receptor antagonists. Part 3: structure-activity relationship of 4'-heterocyclic biphenylsulfonamides” (Bioorg Med Chem Lett, 2002).

pKi: −log10 of the molar value.

The target of one assay is T1, Endothelin-1 receptor (Homo sapiens, UniProt P25101).
T1 sequence (P25101 whole entry): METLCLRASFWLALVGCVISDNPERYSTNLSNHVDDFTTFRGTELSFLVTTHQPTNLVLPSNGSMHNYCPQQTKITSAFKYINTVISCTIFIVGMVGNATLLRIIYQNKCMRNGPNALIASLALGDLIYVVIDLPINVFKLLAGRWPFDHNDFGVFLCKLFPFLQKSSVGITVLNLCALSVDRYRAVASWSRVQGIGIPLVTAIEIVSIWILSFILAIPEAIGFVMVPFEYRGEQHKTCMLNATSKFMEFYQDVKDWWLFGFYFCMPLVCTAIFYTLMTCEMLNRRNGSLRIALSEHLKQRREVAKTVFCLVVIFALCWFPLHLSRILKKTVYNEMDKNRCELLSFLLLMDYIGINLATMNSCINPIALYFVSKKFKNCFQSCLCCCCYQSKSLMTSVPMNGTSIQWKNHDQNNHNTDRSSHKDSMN
Briefly: biochemical.

The target of assay [1] is T2, Endothelin receptor type B (Homo sapiens, UniProt P24530).
T2 sequence (P24530 whole entry): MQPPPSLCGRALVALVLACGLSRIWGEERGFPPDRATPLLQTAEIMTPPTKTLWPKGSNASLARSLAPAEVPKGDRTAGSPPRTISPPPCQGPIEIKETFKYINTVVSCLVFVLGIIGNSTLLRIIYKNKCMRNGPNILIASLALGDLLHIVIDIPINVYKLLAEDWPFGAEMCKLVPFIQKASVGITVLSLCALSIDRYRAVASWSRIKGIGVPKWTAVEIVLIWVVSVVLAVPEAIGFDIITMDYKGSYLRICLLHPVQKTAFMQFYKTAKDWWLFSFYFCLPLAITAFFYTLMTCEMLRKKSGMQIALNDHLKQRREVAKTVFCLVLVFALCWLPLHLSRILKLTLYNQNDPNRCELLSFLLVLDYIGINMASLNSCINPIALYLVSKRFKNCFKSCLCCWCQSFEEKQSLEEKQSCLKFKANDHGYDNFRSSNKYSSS
As to the kind of experiment: Binding affinity to CHO cells stably expressing human Endothelin B receptor. The class given is cell-based.

The pKi is the Ki on a negative log10 scale, so that one unit is a factor of ten. The low end stands for a high Ki, the high end for a low Ki.

Description for Endothelin-1 receptor: Binding affinity to CHO cells stably expressing human Endothelin A receptor.

With `Cc1[n-][o+]c(NS(=O)(=O)c2ccccc2-c2ccc(-c3cccc[n+]3[O-])cc2)c1C`, the figures for the pKi (at Endothelin-1 receptor; in assay [1]) were 7.43 and 4.51, respectively.

With `Cc1noc(NS(=O)(=O)c2ccccc2-c2ccc(-c3cnccn3)cc2)c1C`, the pKi on Endothelin-1 receptor was 8.21; in assay [1] it was 4.66.

Take `COc1cc(OC)nc(-c2ccc(-c3ccccc3S(=O)(=O)Nc3onc(C)c3C)cc2)n1`: the pKi was 6.66 on Endothelin-1 receptor and 4.32 in assay [1].

With `Cc1noc(NS(=O)(=O)c2ccccc2-c2ccc(-n3cccn3)cc2)c1C`, the pKi on Endothelin-1 receptor was 8.17; in assay [1], 5.03.

`Cc1noc(NS(=O)(=O)c2ccccc2-c2ccc(-c3ncc[nH]3)cc2)c1C`: the results for the pKi (at Endothelin-1 receptor; in assay [1]) were 7.36 and 3.82, respectively.

Consider `Cc1noc(NS(=O)(=O)c2ccccc2-c2ccc(-c3nccn3C)cc2)c1C`, for which the pKi is 7.72 at Endothelin-1 receptor and 3.92 in assay [1].

`Cc1noc(NS(=O)(=O)c2ccccc2-c2ccc(-c3ccccn3)cc2)c1C`: the pKi on Endothelin-1 receptor was 8.64; in assay [1], 5.20.

As for `Cc1noc(NS(=O)(=O)c2ccccc2-c2ccc(-c3cncnc3)cc2)c1C`, the pKi is 6.52 on Endothelin-1 receptor and 3.77 in assay [1].

Consider `Cc1noc(NS(=O)(=O)c2ccccc2-c2ccc(-c3ccno3)cc2)c1C`, for which the pKi at Endothelin-1 receptor was 6.57; in assay [1], 4.41.

On to `Cc1noc(NS(=O)(=O)c2ccccc2-c2ccc(-c3ccccc3)cc2)c1C`, for which the values for the pKi (on Endothelin-1 receptor; in assay [1]) were 7.42 and 4.70, respectively.

For the compound `Cc1noc(NS(=O)(=O)c2ccccc2-c2ccc(-c3nnn[nH]3)cc2)c1C`, the pKi was 5.42 at Endothelin-1 receptor and less than 3.70 in assay [1].

As to `Cc1noc(NS(=O)(=O)c2ccccc2-c2ccc(-c3nccs3)cc2)c1C`, the values for the pKi (on Endothelin-1 receptor; in assay [1]) were 8.25 and 4.28, respectively.

For the compound `Cc1noc(NS(=O)(=O)c2ccccc2-c2ccc(-c3cccnc3)cc2)c1C`, the pKi on Endothelin-1 receptor is 8.48; in assay [1], 4.70.

Consider `Cc1noc(NS(=O)(=O)c2ccccc2-c2ccc(-c3ccncn3)cc2)c1C`, for which the pKi is 7.60 on Endothelin-1 receptor and 3.89 in assay [1].

As to `Cc1noc(NS(=O)(=O)c2ccccc2-c2ccc(-c3nnco3)cc2)c1C`, the pKi was 8.40 at Endothelin-1 receptor and 4.12 in assay [1].

As for `Cc1noc(NS(=O)(=O)c2ccccc2-c2ccc(-c3ncccn3)cc2)c1C`, the pKi was 9.05 on Endothelin-1 receptor and 4.80 in assay [1].
